# Patent publication US20140072573A1, “METHOD OF TREATING RHEUMATOID ARTHRITIS” (Institut National de la Sante et de la Recherche Medicale …, priority 2012, published 2014)
# Entries after “also recorded” stand apart in the source; their conditions may differ.
# Assays:
# Assay type in all cases: cell-based, human
# VE-cadherin [1] = test: VE-cadherin extracellular fragment (VE-90) release in HUVEC conditioned media, western blot; conditions: for effect on TNFα-induced VE-90 release: 15 min pre-treatment, TNFα 100 ng/ml 45 min
# Protocol: (§1) Cell culture, extraction and immunoprecipitation: Endothelial cells were obtained from human umbilical vein (HUVECs) and grown to reach confluence in M199 medium supplemented with 10% fetal bovine serum (FCS), 2% Low Serum Growth Supplement LSGS (Cascade Biologics, USA) as previously described (Garnier-Raveaud et al., 2001). The 80% confluent HUVECs (passages 2 or 4) were used for most experiments. Confluent cells in 60 mm dishes were serum-starved in 1% fetal calf serum in M 199 for 24 h prior to testing. Before TNFα stimulation the cells were serum-starved for 2 hours, and then pre-treated for 15 min with sodium pervanadate (10 μM) and/or inhibitors as mentioned in text and figure legends. HUVECs were then stimulated with different concentrations of TNFα for various lengths of time as indicated. Otherwise, in most parts of this study, precisely in inhibition experiments TNFα was used at high concentration (i.e 100 ng/mL). As the inhibitors were diluted in dimethyl-sulfoxide (DMSO), control cells were systematically treated with DMSO 0.1% in any inhibition experiment.
# For conditioned medium analysis, the medium was collected and centrifuged for 15 minutes at 14,000 g at 4° C. The resulting supernatant was collected and proteins were concentrated by trichloro acetic acid precipitation (10%) overnight. After centrifugation at 14,000 g for 30 min, the pellet was re-suspended in Tris 50 mM (pH 11) and analyzed by SDS-PAGE and Western blotting.
# (§2) Western blotting: Proteins were resolved by SDS-PAGE and transferred to nitrocellulose.
# HUVECs = test: Cell viability of treated HUVECs
# VE-cadherin [2] = test: VE-cadherin cytoplasmic fragment (VE-cyto) and 125 kDa full length protein in HUVEC extracts, western blot; conditions: for effect on TNFα-induced VE-cyto generation: L685 present
# Protocol: as §1
# (§3) Cells stimulation was stopped by medium collection and addition of 500 μl of ice-cold buffer A. The cells were harvested, homogenized and sonicated for 20 seconds. Cell lysates were collected after centrifugation for 15 min at 40° C. at 14,000 g. The protein concentration was measured using the micro-bicinchoninic acid protein assay and cell lysates were stored at −80° C. before use.
# as §2
# VE-cadherin [3] = test: VE-cadherin tyrosine phosphorylation in HUVEC lysates, immunoprecipitation and phosphotyrosine western blot; conditions: 50 μM, TNFα 100 ng/ml
# Protocol: as §1
# as §3, with “Cell lysates were collected after centrifugation for 15 min at 40° C. at 14,000 g.” left out, “use. […]” for “use.”
compound,measurement,setting,value
CNC(=O)[C@H](Cc1c[nH]c2ccccc12)NC(=O)[C@@H](CC(=O)NO)CC(C)C [GM6001],effect on TNFα-induced VE-90 release,VE-cadherin [1]; 10 μM,drastically decreased
same,cell viability,HUVECs; 10 μM,without affecting cell viability
same,effect on TNFα-induced VE-cyto generation,VE-cadherin [2]; 10 μM pre-treatment,almost completely abrogated
TNFα,VE-90 release versus TNFα concentration,"VE-cadherin [1]; HUVECs, TNFα 0 up to 10 ng/ml, 45 min",increased in a dose-dependent manner; also recorded: dose-dependent release
same,time of TNFα stimulation after which VE-90 was detected,"VE-cadherin [1]; HUVECs, TNFα 100 ng/ml",10 min
same,VE-90 release in conditioned media over time,"VE-cadherin [1]; HUVECs, TNFα 100 ng/ml, 5 to 60 min",time-dependent release; also recorded: increased in a time-dependent manner up to 60 min
same,low TNFα concentration at which VE-90 release was early detected,"VE-cadherin [1]; HUVECs, dose-response 0 up to 10 ng/ml, 45 min",0.5 ng/mL
same,appearance of VE-cyto upon TNFα challenge,"VE-cadherin [2]; HUVEC extracts, γ-secretase inhibitor L685 present, TNFα 100 ng/ml",clearly detected
sodium pervanadate,effect on VE-cyto generation upon cytokine treatment,VE-cadherin [2]; pervanadate pre-treated versus non pre-treated HUVECs,tremendous increase
CC(C)(C)n1nc(-c2ccc(Cl)cc2)c2c(N)ncnc21 [PP2],effect on TNFα-induced VE-90 release,VE-cadherin [1]; 10 μM,strongly decreased
same,cell viability,HUVECs; 10 μM,without affecting cell viability
same,effect on TNFα-induced VE-cyto generation,VE-cadherin [2]; 10 μM pre-treatment,strongly impaired
O=c1c(-c2ccc(O)cc2)coc2cc(O)cc(O)c12 [genistein],effect on TNFα-induced VE-90 release,VE-cadherin [1]; 50 μM,strongly decreased
same,cell viability,HUVECs; 50 μM,without affecting cell viability
same,effect on TNFα-induced VE-cadherin tyrosine phosphorylation,VE-cadherin [3],inhibited
same,effect on TNFα-induced VE-cyto generation,VE-cadherin [2]; 50 μM pre-treatment,strongly impaired
same,effect on VE-cyto generation with or without pervanadate pre-treatment,"VE-cadherin [2]; both conditions (pervanadate pre-treated or not), TNFα",still decreased
